Reference: US20260097083A1, “METHOD FOR PRODUCING PANCREATIC ENDODERM CELLS” (Kyoto University, priority 2022, published 2026)

Assays:
[1] = tested on: pancreatic endoderm cells derived from human iPS cells; experiment: Expansion culture of pancreatic endoderm cells with Y-27632; assay type: cell-based
Description: FIG. 4-A A schematic diagram illustrating expansion culture of pancreatic endoderm cells with Y-27632 (50 μM). NKX6.1-positive pancreatic endoderm cells were seeded on a plate and cultured in a culture medium containing Y-27632 (50 μM) for one week. After the elapse of one week, the cells were reseeded, and passage and expansion culture were repeated. PDX1^+/NKX6.1^+ pancreatic endoderm cells were produced from iPS cells (585A1 line) or ES cells (KhES-3 line) on a 6-well plate using the method by Toyoda et al. (Toyoda T, et al. Stem Cell Reports 2017). Briefly, the undifferentiated cells above were seeded at 1×10^6/well on a 6-well plate coated with iMatrix-511 silk. The cells were cultured in RPMI to which an S1 culture medium (1×B-27 Supplement, 100 U/ml penicillin/streptomycin, 100 ng/ml activin A, and CHIR99021 (Day 1: 3 μM, Days 2 and 3: 1 μM, and Day 4: 0 μM)) had been added for 4 days, in an S2 culture medium (improved MEM to which 0.5×B-27 Supplement, 100 U/ml penicillin/streptomycin, and 50 ng/ml KGF/FGF7 had been added) for 5 days, and in an S3 culture medium (improved MEM to which 0.5×B-27 Supplement, 100 U/ml penicillin/streptomycin, 50 ng/ml KGF/FGF7, 0.2 μM LDN-193189, 0.1 μM SANT-1, and 10 nM TTNPB had been added) for 2 days. The cells were detached from the 6-well plate using trypsin, and were reseeded on a 6-well plate coated with iMatrix-511 silk at 1.5×10^6/well using the S3 culture medium again. On the next day, the culture medium was changed to an S4 culture medium (improved MEM to which 0.5×B-27 Supplement, 100 U/ml penicillin/streptomycin, 100 ng/ml KGF/FGF7, 50 ng/ml EGF, 10 mM nicotinamide, and 50 μM Y-27632 had been added), and the cells were cultured for 4 days. (1) After the cells produced in clause 1 above were washed with PBS(−), 1 ml of 0.25% trypsin-EDTA was added thereto, and the cells were incubated at 37° C. and 5% CO2 for 5 minutes. (2) The adherent cells were detached through pipetting and were added to a 50-ml centrifuge tube. (3) 4 ml of DMEM (Dulbecco's Modified Eagle Medium)/10% FBS/PS (penicillin-streptomycin) was added to the centrifuge tube. (4) The resulting mixture was centrifuged at 400 G for 3 minutes, and the supernatant was removed. (5) The cells were suspended in improved MEM (containing 10 μM Y-27632, 0.5×B-27 Supplement, and 100 U/ml penicillin/streptomycin), and were counted. (6) When the cells were seeded on a 6-well plate, an amount of the suspension necessary to provide 1×10^6 cells/well was collected and was centrifuged at 400 G for 3 minutes (2×10^5 cells/well for a 24-well plate). (7) After the supernatant was removed, the cells were re-suspended in improved MEM (containing 100 ng/ml KGF, 50 ng/ml EGF, 10 mM nicotinamide, 50 μM Y-27632, 0.5×B-27 Supplement, and 100 U/ml penicillin/streptomycin), the suspension was adjusted to correspond to 2 ml/well, and then the cells were seeded. A 6-well plate to which the cells were to be seeded had been coated in advance by adding a solution formed by mixing 10 μl of iMatrix-511 silk and 1.5 ml of PBS(−) to each well 1 hour before seeding, and incubating the plate at 37° C. and 5% CO2 for 1 hour. (8) On the next day (Day 1), the cells were washed with improved MEM, and then the culture medium was changed to improved MEM (5 ml/well) containing 100 ng/ml KGF, 50 ng/ml EGF, 10 mM nicotinamide, 50 μM Y-27632, 0.5×B-27 Supplement, and 100 U/ml penicillin/streptomycin. (9) The cells were washed with improved MEM 3 days after that (on Day 4), and then the culture medium was changed to the same culture medium as that in the step (7) (5 ml/well). (10) The steps (1) to (7) above were conducted 3 days after that (on Day 7), and the next passage (expansion culture) was conducted. Expansion culture and passage culture were repeated by repeating the steps (8), (9), and (10) from the next day. One round of the passage (expansion culture) corresponded to 7 days (operations above). FIGS. 4-A show the outline of this procedure. […]

[2] = tested on: pancreatic endoderm cells; experiment: α-SMA immunostaining at the third passage of expansion culture; assay type: cell-based; details: Y-27632 50 μM vs non-administration, FIG. 6
Description: FIG. 6 Images of pancreatic endoderm cells immunostained against α-SMA at the third passage of the pancreatic endoderm cells with or without the administration of Y-27632 (50 μM). The cells after the expansion culture were washed with PBS(−) twice, and were then fixed using 4% PFA at 4° C. for 20 minutes. The cells were blocked with a blocking solution (PBS(−) containing 5% donkey serum and 0.4% Triton X-100) at room temperature for 30 minutes. The cells were incubated in a primary antibody solution diluted with the blocking solution at 4° C. overnight. After the primary antibody solution was washed off, the cells were incubated at room temperature for 1 hour in a fluorescent secondary antibody solution diluted with the blocking solution. Fluorescently immunostained images were acquired using BZ-710 or BZ-800 (Keyence). A mechanism by which the expansion culture of pancreatic endoderm cells with Y-27632 was enabled was examined. It was shown that, at the third passage of the expansion culture, the number of α-SMA-positive cells increased in the Y-27632 non-administration group compared with the group to which Y-27632 at a concentration of 50 μM was administered (FIG. 6). That is to say, it was observed that fibrosis or epithelial-mesenchymal transition was suppressed by administering Y-27632 to the cells.

[3] = 50 μM, flow cytometry, FIG. 4-E
[4] = 50 μM, immunostaining after expansion culture, FIG. 4-D

For `C[C@@H](N)[C@H]1CC[C@H](C(=O)Nc2ccncc2)CC1` [Y-27632], the “proliferative capacity of the pancreatic endoderm cells (Ki67-positive ratio)” value ([1]; 50 μM, during expansion culture, FIG. 4-F) was “maintained”, the Ki67-positive ratio [1, 3] was “kept” and the “ratio of the pancreatic endoderm cells” value [1, 3] was “kept”. For the same molecule, the “expression of Ki67” value [1, 4] was “maintained”, the “expression of PDX1 and NKX6.1” value [1, 4] was “maintained” and the “total number of cells increased by a factor of” value ([1]; Y-27632 50 μM, 60 days, FIG. 4-B) was ≥ 1×10^5. For the same molecule, the “number of PDX1+/NKX6.1+ pancreatic endoderm cells increased by a factor of” value ([1]; Y-27632 50 μM, 60 days, FIG. 4-C) was ≥ 1×10^5, the “NKX6.1-positive ratio on repeated expansion culture” value ([1]; culture medium for expansion culture with Y-27632) was “tended to gradually decrease” and the “fibrosis or epithelial-mesenchymal transition (α-SMA-positive cells)” value [2] was “suppressed”.
